Common to all, as to format: functional, cell-based
Assay [1] concerns HL-60. Put plainly: Anticancer activity against Homo sapiens (human) HL60 cells assessed as inhibition of cell proliferation after 72 hr by MTT assay. The conditions noted are these: for IC50: HL-60, 72 h. In general terms: Tetrazolium dyes change colour on reduction, which living cells bring about.
In assay [2] the test system is HL-60. As to the kind of experiment: Anticancer activity against Homo sapiens (human) HL60 cells assessed as abnormal morphological changes after 48 hr by inverted phase contrast microscopic analysis.
Assay [3] deals with HCT-116. As to the kind of experiment: Anticancer activity against Homo sapiens (human) HCT116 cells assessed as inhibition of cell proliferation after 72 hr by MTT assay. The conditions noted are these: for IC50: HCT-116, 72 h.
For assay [4], the system named is HCT-116. As to the kind of experiment: Anticancer activity against Homo sapiens (human) HCT116 cells assessed as cells with abnormal large number of vacuoles in cytoplasm after 48 hr by inverted phase contrast microscopic analysis.
Assay [5] has as its system HCT-116. As to the kind of experiment: Anticancer activity against Homo sapiens (human) HCT116 cells assessed as reduction in cell number after 48 hr by inverted phase contrast microscopic analysis.
Assay [6] deals with HCT-116. Put plainly: Anticancer activity against Homo sapiens (human) HCT116 cells assessed as abnormal morphological changes after 48 hr by inverted phase contrast microscopic analysis.

These results are taken from ChEMBL document CHEMBL3046403, “Synthesis and anticancer activity of para-xylyl linked bis-benzimidazolium salts and respective Ag(I) N-heterocyclic carbene complexes” (Med Chem Res, 2013).

Structures are written as SMILES. Activity calls are given as the source filed them. The rule behind the calls is not given here.

The term IC50 denotes the midpoint of a concentration-inhibition curve. Regarding `CCn1c[n+](Cc2ccc(C[n+]3cn(CC)c4ccccc43)cc2)c2ccccc21`, the inhibition entry in the assay on HL-60 [1] and in the assay on HCT-116 [3] was “Dose-dependent effect” each time. Further, the IC50 came out at 39.5 µM with HL-60 [1] and 0.3 µM in the assay with HCT-116 [3]. For the same compound, the outcome in the assay with HL-60 [2] and in the assay on HCT-116 [4] was Active.
For `CCCCn1c[n+](Cc2ccc(C[n+]3cn(CCCC)c4ccccc43)cc2)c2ccccc21`, the result in the assay on HCT-116 [5] and in the assay with HL-60 [2] was Active. The inhibition result with HL-60 [1] and in the assay on HCT-116 [3] was “Dose-dependent effect” each time. The IC50 with HL-60 [1] worked out at 55.7 µM; in the assay on HCT-116 [3] it was 18.7 µM.
For the compound `CCCn1c[n+](Cc2ccc(C[n+]3cn(CCC)c4ccccc43)cc2)c2ccccc21`, the inhibition entry with HL-60 [1] and in the assay on HCT-116 [3] was “Dose-dependent effect” throughout. Also, the figures for the IC50 in the assay on HL-60 [1] and in the assay with HCT-116 [3] were 49.4 µM and 1.4 µM, respectively. Besides, the outcome in the assay on HL-60 [2] and in the assay with HCT-116 [6] was Active.
As to `O=c1[nH]cc(F)c(=O)[nH]1` [FLUOROURACIL], the inhibition entry in the assay on HL-60 [1] and with HCT-116 [3] was “Dose-dependent effect” each time. Moreover, the IC50 in the assay with HL-60 [1] worked out at 5.4 µM.
